16 molecules from US10273503B2, “Compounds and methods for enhancing viral gene transfer to human hematopoietic cells” (UNIVERSTÉ DE MONTRÉAL, priority 2015, dated 2019) can be followed below.

Molecules are shown by their SMILES.

The test system of one test is human CD34+ cells. Nature of the test: Expansion of human CD34+ cells (EC50, CD34+CD45RA- cell count). The note with it: concentration that results in a 50% increase in CD34+CD45RA- cell count compared to vehicle cultures (DMSO); for EC50: Homo sapiens, read-out: Biological data (EC50)*. Type of test: cell-based.
In another test the test system is human CD34+ CB cells. The test is classed as cell-based. The conditions noted are these: for gene transfer efficiency to human CD34+ CB cells and CD34+ subsets, variants of Cmpd1: prestimulated 16 hours and transduced 6 hours in presence of compound, FACS after 3 additional days (FIGS. 16A, 16B). As to the method: The cells were then exposed for 6 hours to a GFP lentiviral vector (10^6 iu/mL) in the same medium. […] At the end of the culture media, cells were harvested, stained for CD34 and analysed by flow cytometry.
The vector constructs were sequence-verified. […] Virus-containing supernatants were concentrated by ultracentrifugation to achieve titers of 0.5×10^9 to 5×10^9 infectious units/ml. Viral titers were determined by transducing HeLa cells with three dilutions of the lentiviral vector.
Umbilical cord blood (CB) and mobilized peripheral blood (mPB) cells were collected with consent according to procedures approved by the Research Ethics Board of the University of British Columbia. CD34^+ enriched adult bone marrow cells were purchased from […] Technologies. CD34^+ CB and mPB cells were enriched to >90% purity using first RosetteSep™ CD34 preenrichment cocktail ([…] Technologies) followed by positive selection using magnetic beads (EasySep kit, […] Technologies). In some cases additional enrichment was done by sorting CD34^+ cells using an Influx II sorter (BD Bioscience). […] All flow cytometric analysis was performed using a LSRII Fortessa® (BD Biosciences).

Test [1] deals with macaque umbilical cord blood CD34+ cells. The note with it: after transplantation of co-cultured macaque cord blood CD34+ cells.

As to `COC(=O)c1ccc2c(c1)[nH]c1nc(Cc3cccc(F)c3)nc(NCCCN3CCCCC3)c12` [Cmpd 4], in the test on human CD34+ cells, the EC50 is below 100 nM. Further, the “gene transfer efficiency to human CD34+ CB cells and CD34+ subsets, variants of Cmpd1” value (“gene transfer efficiency” for short) in the test on human CD34+ CB cells is “increase gene transfer efficiency”. Taken in the same sequence, the figures for `CCCOC(=O)c1ccc2c(c1)[nH]c1ncnc(NCCCN3CCCCC3)c12` [Cmpd 7, propyl 4-((3-(piperidin-1-yl)propyl)amino)-9H-pyrimido[4,5-b]indole-7-carboxylate] were above 1000 nM and “not observed”. With `CN(CCCNC(=O)CNC(=O)CNC(=O)CN)CCCNc1nc(Cc2ccccc2)nc2[nH]c3cc(-c4nnn(C)n4)ccc3c12` [Cmpd 5, 2-amino-N-(2-((2-((3-((3-((2-benzyl-7-(2-methyl-2H-tetrazol-5-yl)-9H-pyrimido[4,5-b]indol-4-yl)amino)propyl)(methyl)amino)propyl)amino)-2-oxoethyl)amino)-2-oxoethyl)acetamide], in the test with human CD34+ cells, the EC50 lay within 250 to 500 nM. In addition, the “gene transfer efficiency” value in the test with human CD34+ CB cells is “increase gene transfer efficiency”. `CC(C)n1cnc2c(NCCc3ccc(O)cc3)nc(-c3csc4ccccc34)nc21` [SR1, StemRegenin 1, reference compound]: the “enhancement of lentiviral-mediated gene transfer (in words)” value with human CD34+ CB cells (SR1 0.75 μM, assessed 3 days post-infection on CD34+ cells from cord blood) is reported as “not observed”. For the same molecule, in test [1], the “proportion of primate CD45+ cells in the blood of transplanted mice” value is recorded as “not obtained”. Regarding `COC(=O)c1ccc2c(c1)[nH]c1nc(Cc3ccccc3)nc(SCCCN3CCCCC3)c12` [Cmpd 6, methyl 2-benzyl-4-((3-(piperidin-1-yl)propyl)thio)-9H-pyrimido[4,5-b]indole-7-carboxylate], the EC50 with human CD34+ cells is 250 to 500 nM. Also, in the test with human CD34+ CB cells, the “gene transfer efficiency” value is “increase gene transfer efficiency”. Consider `COC(=O)c1ccc2c(c1)[nH]c1cc(Cc3ccsc3)nc(N[C@H]3CC[C@H](N)CC3)c12` [Cmpd 88], for which the EC50 in the test on human CD34+ cells lay within 100 to 250 nM. On the same count and under the same terms, the value for `COC(=O)c1ccc2c(c1)[nH]c1cc(Cc3cccc(OC)c3)nc(NCCCCN3CCCC3)c12` [Cmpd 81] was below 100 nM; that for `COC(=O)c1ccc2c(c1)[nH]c1nc(Cc3ccccc3C)nc(NCCCN3CCCCC3)c12` [Cmpd 36] was below 100 nM. With `COC(=O)c1ccc2c(c1)[nH]c1nc(-c3ccccc3)nc(NCCCN3CCCCC3)c12` [Cmpd 8, methyl 2-phenyl-4-((3-(piperidin-1-yl)propyl)amino)-9H-pyrimido[4,5-b]indole-7-carboxylate 2,2,2-trifluoroacetate], the “Biological data (EC50)*” value in the test with human CD34+ cells is “inactive”. In addition, the “gene transfer efficiency” value in the test with human CD34+ CB cells is “not observed”.

Turning to `Cn1nnc(-c2ccc3c(c2)[nH]c2cc(Cc4ccccc4)nc(NCCCN4CCCCC4)c23)n1` [Cmpd 80], the EC50 in the test on human CD34+ cells was in the range of 100 to 250 nM. With `COC(=O)c1ccc2c(c1)[nH]c1nc(Cc3ccccc3)nc(NCCCN3CCCCC3)c12` [Cmpd 34], the EC50 with human CD34+ cells is below 100 nM. Regarding `COC(=O)c1ccc2c(c1)[nH]c1nc(Cc3ccccc3)nc(N(C)CCCN3CCCCC3)c12` [Cmpd 3], the EC50 in the test with human CD34+ cells is below 100 nM. In addition, the “gene transfer efficiency” value in the test on human CD34+ CB cells was “increase gene transfer efficiency”. Turning to `COC(=O)c1ccc2c(c1)[nH]c1nc(Cc3cccc(OC)c3)nc(NCCCN3CCCCC3)c12` [Cmpd 38], in the test with human CD34+ cells, the EC50 is below 100 nM.

Turning to `COC(=O)c1ccc2c(c1)[nH]c1nc(Cc3ccccc3)nc(OCCCN3CCCCC3)c12` [Cmpd 47], the EC50 in the test with human CD34+ cells was in the range of 500 to 1000 nM.

Take `Cn1nnc(-c2ccc3c(c2)[nH]c2ncnc(NCCCN4CCCCC4)c23)n1` [Cmpd 21]: the EC50 with human CD34+ cells fell in the range of 100 to 250 nM. For `COC(=O)c1ccc2c(c1)[nH]c1nc(C(OC)c3ccccc3)nc(NCCCN3CCCCC3)c12` (centres unmarked) [Cmpd 28], the EC50 in the test on human CD34+ cells is below 100 nM.
